According to PubChem BioAssay (NCI):
Several values for one entry are separate records, joined by “and”; a condition that tells them apart may be missing. Equal values may be shown once.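 Grown in 96-well plates, cells were treated for 48 hours with each compound at five concentrations. Insufficient inhibition: endpoint recorded as highest concentration tested. GI50 is the concentration that inhibits growth by half. TGI: total growth inhibition.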

How the values were obtained:
Assay in all cases: inhibition of tumour cell growth, NCI panel, 48 h
[1] = system: MDA-MB-435
[2] = system: HOP-92 NSCLC
[3] = system: LOX IMVI melanoma
[4] = system: EKVX NSCLC
[5] = system: SF-268 CNS
[6] = system: SW-620 colon
[7] = system: UACC-257 melanoma
[8] = system: SK-MEL-28 melanoma
[9] = system: HCT-116 colon
[10] = system: NCI-H23 lung

| SMILES | GI50 [1] | TGI [1] | GI50 [2] | TGI [2] | GI50 [3] | TGI [3] | GI50 [4] | TGI [4] | GI50 [5] | TGI [5] | GI50 [6] | TGI [6] | GI50 [7] | TGI [7] | GI50 [8] | TGI [8] | GI50 [9] | TGI [9] | GI50 [10] | TGI [10] |
| --- | --- | --- | --- | --- | --- | --- | --- | --- | --- | --- | --- | --- | --- | --- | --- | --- | --- | --- | --- | --- |
| O=C1C=CC(=O)c2c1ncc1c2nc2sccn21 | 16.3 µM | 39.2 µM | 14.9 µM | 31.1 µM | 29.9 µM | > 100 µM | 20.2 µM | 44.7 µM | 18.5 µM | > 100 µM | 14.7 µM | 77.7 µM | 20.2 µM | 37.2 µM | 22.9 µM | 47.2 µM | 12.5 µM | 37.8 µM | 22.2 µM | 83.7 µM |
| COc1cc2c3c(n(C)c(=O)c2cc1OC)-c1cc2c(cc1/C3=C/[C@H](N)CCCCN)OCO2 | 0.293 µM | 4.69 µM | 4.48 µM | > 50.9 µM | 0.63 µM | 2.37 µM | 5.93 µM | > 24.8 µM | 0.315 µM | 3.97 µM | 0.595 µM | > 37.9 µM | 1.98 µM | 11.1 µM | 1.89 µM | 11.2 µM | 0.564 µM | 2.24 µM | 2.52 µM | 21.9 µM |
| CCN1CCC(CC(=O)Nc2n[nH]c3nc(-c4cccs4)c(Br)cc23)CC1 | 5.35 µM | 14.5 µM | > 24.1 µM | > 25 µM | 5.11 µM | 14.1 µM | > 25 µM | > 25 µM | 11.5 µM | > 25 µM | 11.4 µM | > 25 µM | 5.58 µM | 10.8 µM | 5.31 µM | 9.85 µM | 7.81 µM | > 23.4 µM | 20.1 µM | > 25 µM |
| CO/C(=N\N=C\c1cccc(C(F)(F)F)c1)c1ccncc1 | 3.33 µM | 6.17 µM and 25.5 µM |  | > 100 µM | 10.2 µM | > 100 µM |  | 77.3 µM |  |  |  | > 100 µM |  | > 100 µM |  | > 100 µM |  | > 100 µM |  | 42.6 µM |
| Cc1ccc2nc(N/N=C/c3cccc(C)n3)cc(C)c2c1 |  | 32 µM |  | 37.2 µM |  | 31.6 µM |  | 35.7 µM |  | 38.7 µM |  | 40.4 µM |  | 31.8 µM |  | 33.2 µM |  | 32.1 µM |  | 43.2 µM |
| O=C1CC/C(=C\COc2ccc3ccc(=O)oc3c2)O1 | 3.41 µM | 17.5 µM | 10.6 µM | 25.5 µM | 6.96 µM | 20.6 µM | 16.7 µM | 46.4 µM | 11.9 µM | 63 µM | 2.35 µM | 14.9 µM | 13.6 µM | 30 µM | 15.3 µM | 32.7 µM | 6.25 µM | 22.8 µM | 11.7 µM | 30 µM |
| Cc1ccc(F)cc1NC(=O)c1cc(Cl)ccc1Nc1ccccc1 | > 100 µM | > 100 µM | 32 µM | > 100 µM | > 100 µM | > 100 µM |  |  | > 100 µM | > 100 µM | > 100 µM | > 100 µM | > 100 µM | > 100 µM | > 100 µM | > 100 µM | > 100 µM | > 100 µM | > 100 µM | > 100 µM |
